# From patent publication US20220062240A1, “METHODS OF TREATING CANCER USING A CLK INHIBITOR” (BioSplice Therapeutics, Inc., priority 2018, published 2022)
# pEC50: −log10 of the molar value. Read-outs that look alike come from different tables or passages of the source.
# Key:
# [1] = test system: colorectal cancer (6 cell lines); experiment: CellTiter-Glo Viability Assay, colorectal cancer; assay type: cell-based; settings: Homo sapiens, inhibition of cancer cell proliferation
# [2] = test system: ovarian cancer (4 cell lines); experiment: CellTiter-Glo Viability Assay, ovarian cancer; assay type: cell-based; settings: Homo sapiens, inhibition of cancer cell proliferation
# [3] = test system: prostate cancer (5 cell lines); experiment: CellTiter-Glo Viability Assay, prostate cancer; assay type: cell-based; settings: Homo sapiens
# [4] = test system: pancreatic cancer (8 cell lines); experiment: CellTiter-Glo Viability Assay, pancreatic cancer; assay type: cell-based; settings: Homo sapiens, inhibition of cancer cell proliferation
# [5] = test system: liver cancer (3 cell lines); experiment: CellTiter-Glo Viability Assay, liver cancer; assay type: cell-based; settings: Homo sapiens, inhibition of cancer cell proliferation
# all 50 cell lines = experiment: CellTiter-Glo Viability Assay, average across all cell lines; assay type: cell-based; settings: Homo sapiens; across all 50 cell lines; read-out: average EC50 for inhibition of cancer cell proliferation
# Outline: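 Cancer cell lines of several tumour types plated at 300-3,000 cells/well and exposed to compound in duplicate for four days at 37° C, 5% CO2, with DMSO-treated controls. Viability read by CellTiter-Glo luminescence (ATP content); EC50 derived from dose-response curves.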
# [6] = test system: lung cancer (4 cell lines); experiment: CellTiter-Glo Viability Assay, lung cancer; assay type: cell-based; settings: Homo sapiens, inhibition of cancer cell proliferation
# CLK3 = CLK3 (Homo sapiens, UniProt P49761); experiment: CLK3 kinase activity assay (Z-lyte, Ser/Thr 18 peptide)
# CLK3, sequence (P49761 whole entry): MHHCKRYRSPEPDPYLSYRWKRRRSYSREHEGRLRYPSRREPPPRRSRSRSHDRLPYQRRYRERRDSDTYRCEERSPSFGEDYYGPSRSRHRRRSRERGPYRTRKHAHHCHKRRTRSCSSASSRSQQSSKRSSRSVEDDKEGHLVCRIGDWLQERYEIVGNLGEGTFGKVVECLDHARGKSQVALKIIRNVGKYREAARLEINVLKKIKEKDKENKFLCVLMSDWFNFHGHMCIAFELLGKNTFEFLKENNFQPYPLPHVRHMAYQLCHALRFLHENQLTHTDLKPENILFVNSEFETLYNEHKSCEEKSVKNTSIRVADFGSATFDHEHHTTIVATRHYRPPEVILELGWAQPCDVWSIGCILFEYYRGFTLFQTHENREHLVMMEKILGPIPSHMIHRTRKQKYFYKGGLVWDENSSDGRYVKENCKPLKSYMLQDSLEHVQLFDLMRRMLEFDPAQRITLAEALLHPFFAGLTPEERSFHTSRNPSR
# DU4475 = experiment: CellTiter-Glo Viability Assay, breast cancer; assay type: cell-based; settings: Homo sapiens, DU-4475, 96 h; DU4475, breast cancer, four days; read-out: EC50
# MCF7 = experiment: CellTiter-Glo Viability Assay, breast cancer; assay type: cell-based; settings: Homo sapiens, 96 h; MCF7, breast cancer, four days; read-out: EC50
# HCC1599 = experiment: CellTiter-Glo Viability Assay, breast cancer; assay type: cell-based; settings: Homo sapiens, 96 h; HCC1599, breast cancer, four days; read-out: EC50
# T47D = experiment: CellTiter-Glo Viability Assay, breast cancer; assay type: cell-based; settings: Homo sapiens, 96 h, breast cancer, four days, read-out: EC50
# BT-549 = experiment: CellTiter-Glo Viability Assay, breast cancer; assay type: cell-based; settings: Homo sapiens, 96 h; BT-549, breast cancer, four days; read-out: EC50
# ZR-75-1 = experiment: CellTiter-Glo Viability Assay, breast cancer; assay type: cell-based; settings: Homo sapiens, 96 h; ZR-75-1, breast cancer, four days; read-out: EC50
# MDA-MB-231-Luc = experiment: CellTiter-Glo Viability Assay, breast cancer; assay type: cell-based; settings: Homo sapiens, 96 h; MDA-MB-231-Luc, breast cancer, four days; read-out: EC50
# CAMA1 = experiment: CellTiter-Glo Viability Assay, breast cancer; assay type: cell-based; settings: Homo sapiens, CAMA-1, 96 h; CAMA1, breast cancer, four days; read-out: EC50
# [7] = test system: haematopoietic & lymphoid tumors (13 cell lines); experiment: CellTiter-Glo Viability Assay, haematopoietic & lymphoid tumors; assay type: cell-based; settings: Homo sapiens, inhibition of cancer cell proliferation
# CLK2 = molecular target: T1, CLK2 (Homo sapiens, UniProt P49760); experiment: CLK2 kinase activity assay (Z-lyte, Ser/Thr 6 peptide); assay type: biochemical; settings: recombinant CLK2 kinase, ATP 60 μM; read-out: EC50
# T1 construct: purchased Thermo Fisher (Life Technologies), Z'-LYTE Kinase Assay Kits
# T1 sequence (P49760 whole entry): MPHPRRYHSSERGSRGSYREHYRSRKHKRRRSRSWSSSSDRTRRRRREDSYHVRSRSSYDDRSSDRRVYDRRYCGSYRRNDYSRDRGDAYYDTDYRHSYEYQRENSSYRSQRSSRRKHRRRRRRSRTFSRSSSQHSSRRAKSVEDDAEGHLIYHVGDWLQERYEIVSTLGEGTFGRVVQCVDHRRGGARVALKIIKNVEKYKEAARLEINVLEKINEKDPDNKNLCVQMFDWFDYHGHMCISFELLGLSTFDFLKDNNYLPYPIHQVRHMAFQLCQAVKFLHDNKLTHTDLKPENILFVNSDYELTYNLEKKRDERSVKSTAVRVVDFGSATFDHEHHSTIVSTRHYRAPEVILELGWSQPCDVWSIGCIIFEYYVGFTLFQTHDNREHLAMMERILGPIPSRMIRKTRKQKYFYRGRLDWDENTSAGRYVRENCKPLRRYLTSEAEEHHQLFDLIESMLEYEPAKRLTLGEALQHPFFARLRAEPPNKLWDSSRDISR
# Procedure: All reactions were performed in duplicate.
# [8] = HCT-116, HCT116 cell line, read-out: Colorectal cancer, EC50 (μM) HCT116
# [9] = HT-29, HT29 cell line, read-out: Colorectal cancer, EC50 (μM) HT29
# [10] = SW-620, SW620 cell line, read-out: Colorectal cancer, EC50 (μM) SW620
# [11] = DLD-1 cell line, read-out: Colorectal cancer, EC50 (μM) DLD-1
# [12] = SW48 cell line, read-out: Colorectal cancer, EC50 (μM) SW48
# [13] = SW480 cell line, read-out: Colorectal cancer, EC50 (μM) SW480
# [14] = PA-1, PA1 cell line, read-out: Ovarian cancer, EC50 (μM) PA1
# [15] = TOV112D, TOV-112D cell line, read-out: Ovarian cancer, EC50 (μM) TOV-112D
# [16] = OV-90 cell line, read-out: Ovarian cancer, EC50 (μM) OV-90
# [17] = OVCAR-3 cell line, read-out: Ovarian cancer, EC50 (μM) OVCAR-3
# [18] = DU-145, read-out: Prostate cancer EC50 Du-145
# [19] = PC-3, PC3 cell line, inhibition of cancer cell proliferation, read-out: Prostate cancer EC50 PC3
# [20] = 22Rv1 cell line, inhibition of cancer cell proliferation, read-out: Prostate cancer EC50 22Rv1
# [21] = LNCap clone FGC cell line, inhibition of cancer cell proliferation, read-out: Prostate cancer EC50 LNCap clone FGC
# [22] = VCaP (Sigma) cell line, inhibition of cancer cell proliferation, read-out: Prostate cancer EC50 VCaP (Sigma)
# [23] = BXPC-3, BxPC3 cell line, read-out: Pancreatic cancer, EC50 BxPC3
# [24] = CAPAN-1, Capan1 cell line, read-out: Pancreatic cancer, EC50 Capan1
# [25] = Capan-2, Capan2 cell line, read-out: Pancreatic cancer, EC50 Capan2
# [26] = MIA PaCa-2 cell line, read-out: Pancreatic cancer, EC50 MIA PaCa-2
# [27] = PANC 05.04 cell line, read-out: Pancreatic cancer, EC50 PANC 05.04
# [28] = PANC-1 cell line, read-out: Pancreatic cancer, EC50 PANC-1
# [29] = UPAFII cell line, read-out: Pancreatic cancer, EC50 UPAFII
# [30] = SNU-398, SNU398 cell line, read-out: Liver cancer, EC50 SNU398
# [31] = HEPG2 cell line, read-out: Liver cancer, EC50 HEPG2
# [32] = PLC/PRF/5 cell line, read-out: Liver cancer, EC50 PLC/PRF/5
# [33] = A-427, A427 cell line, read-out: Lung cancer, EC50 (μM) A427
# [34] = HCC78, HCC-78 cell line, read-out: Lung cancer, EC50 (μM) HCC-78
# [35] = NCI-H460 cell line, read-out: Lung cancer, EC50 (μM) NCI-H460
# [36] = NCI-H522 cell line, read-out: Lung cancer, EC50 (μM) NCI-H522
# [37] = DND41, DND-41 cell line, read-out: Haematopoietic & Lymphoid tumors, EC50 (μM) DND-41
# [38] = MV4-11, MV-4-11 cell line, read-out: Haematopoietic & Lymphoid tumors, EC50 (μM) MV-4-11
# [39] = Rec1, REC-1 cell line, read-out: Haematopoietic & Lymphoid tumors, EC50 (μM) REC-1
# [40] = SU-DHL-4, SUDHL4 cell line, read-out: Haematopoietic & Lymphoid tumors, EC50 (μM) SUDHL4
# [41] = HL-60 cell line, read-out: Haematopoietic & Lymphoid tumors, EC50 (μM) HL-60
# [42] = JM1 cell line, read-out: Haematopoietic & Lymphoid tumors, EC50 (μM) JM1
# [43] = JURKAT, Clone E6-1 cell line, read-out: Haematopoietic & Lymphoid tumors, EC50 (μM) JURKAT, Clone E6-1
# [44] = JeKo-1 cell line, read-out: Haematopoietic & Lymphoid tumors, EC50 (μM) JeKo-1
# [45] = KASUMI-1 cell line, read-out: Haematopoietic & Lymphoid tumors, EC50 (μM) KASUMI-1
# [46] = Loucy cell line, read-out: Haematopoietic & Lymphoid tumors, EC50 (μM) Loucy
# [47] = MOLT-4 cell line, read-out: Haematopoietic & Lymphoid tumors, EC50 (μM) MOLT-4
# [48] = TF-1 cell line, read-out: Haematopoietic & Lymphoid tumors, EC50 (μM) TF-1
# [49] = TOLEDO cell line, read-out: Haematopoietic & Lymphoid tumors, EC50 (μM) TOLEDO
compound,measurement,setting,value
CN1CCC(Sc2ccc3cnc(NC(=O)c4ccnc(SC5CCN(C)CC5)c4)cc3c2)CC1 [Compound 88],EC50,[1]; [8],0.497 µM
same,EC50,[1]; [9],0.574 µM
same,EC50,[1]; [10],0.465 µM
same,EC50,[1]; [11],0.677 µM
same,EC50,[1]; [12],0.153 µM
same,EC50,[1]; [13],0.796 µM
same,EC50,[2]; [14],1.05 µM
same,EC50,[2]; [15],0.873 µM
same,EC50,[2]; [16],1.88 µM
same,EC50,[2]; [17],0.569 µM
same,pEC50,[3]; [18],6.11
same,pEC50,[3]; [19],6.04
same,pEC50,[3]; [20],6.27
same,pEC50,[3]; [21],5.92
same,pEC50,[3]; [22],6.14
same,pEC50,[4]; [23],5.91
same,pEC50,[4]; [24],5.99
same,pEC50,[4]; [25],6.03
same,pEC50,[4]; [26],6.53
same,pEC50,[4]; [27],5.68
same,pEC50,[4]; [28],6.09
same,pEC50,[4]; [29],6.26
same,pEC50,[5]; [30],6.78
same,pEC50,[5]; [31],5.19
same,pEC50,[5]; [32],5.81
same,pEC50,all 50 cell lines,5.94
same,EC50,[6]; [33],0.841 µM
same,EC50,[6]; [34],1.29 µM
same,EC50,[6]; [35],0.697 µM
same,EC50,[6]; [36],0.33 µM
same,pEC50,CLK3,7.67
same,pEC50,DU4475,6.27
same,pEC50,MCF7,5.72
same,pEC50,HCC1599,5.64
same,pEC50,T47D,5.14
same,pEC50,BT-549,5.99
same,pEC50,ZR-75-1,5.84
same,pEC50,MDA-MB-231-Luc,5.91
same,pEC50,CAMA1,5.85
same,EC50,[7]; [37],1 µM
same,EC50,[7]; [38],0.204 µM
same,EC50,[7]; [39],0.192 µM
same,EC50,[7]; [40],0.527 µM
same,EC50,[7]; [41],1.28 µM
same,EC50,[7]; [42],0.158 µM
same,EC50,[7]; [43],1.19 µM
same,EC50,[7]; [44],0.32 µM
same,EC50,[7]; [45],0.517 µM
same,EC50,[7]; [46],0.614 µM
same,EC50,[7]; [47],1.45 µM
same,EC50,[7]; [48],2.67 µM
same,EC50,[7]; [49],0.274 µM
same,pEC50,CLK2,8.35
CN1CCC(C(=O)Nc2c[nH]nc2-c2nc3c(-c4ccc(F)s4)cccc3[nH]2)CC1 [Compound 90],EC50,[1]; [8],0.06 µM
same,EC50,[1]; [9],0.171 µM
same,EC50,[1]; [10],0.047 µM
same,EC50,[1]; [11],0.131 µM
same,EC50,[1]; [12],0.023 µM
same,EC50,[1]; [13],0.061 µM
same,EC50,[2]; [14],0.23 µM
same,EC50,[2]; [15],0.101 µM
same,EC50,[2]; [16],0.361 µM
same,EC50,[2]; [17],0.111 µM
same,pEC50,[3]; [18],6.91
same,pEC50,[3]; [19],7.03
same,pEC50,[3]; [20],6.99
same,pEC50,[3]; [21],6.48
same,pEC50,[3]; [22],7.01
same,pEC50,[4]; [23],7.34
same,pEC50,[4]; [24],6.94
same,pEC50,[4]; [25],6.82
same,pEC50,[4]; [26],7.22
same,pEC50,[4]; [27],6.85
same,pEC50,[4]; [28],6.66
same,pEC50,[4]; [29],6.97
same,pEC50,[5]; [30],7.26
same,pEC50,[5]; [31],6.79
same,pEC50,[5]; [32],6.43
same,pEC50,all 50 cell lines,6.85
same,EC50,[6]; [33],0.13 µM
same,EC50,[6]; [34],0.136 µM
same,EC50,[6]; [35],0.243 µM
same,EC50,[6]; [36],0.091 µM
same,pEC50,CLK3,7.66
same,pEC50,DU4475,7.02
same,pEC50,MCF7,6.44
same,pEC50,HCC1599,6.90
same,pEC50,T47D,6.55
same,pEC50,BT-549,6.94
same,pEC50,ZR-75-1,6.67
same,pEC50,MDA-MB-231-Luc,6.69
same,pEC50,CAMA1,6.36
same,EC50,[7]; [37],0.106 µM
same,EC50,[7]; [38],0.008 µM
same,EC50,[7]; [39],0.022 µM
same,EC50,[7]; [40],0.079 µM
same,EC50,[7]; [41],0.246 µM
same,EC50,[7]; [42],0.06 µM
same,EC50,[7]; [43],0.226 µM
same,EC50,[7]; [44],0.04 µM
same,EC50,[7]; [45],0.053 µM
same,EC50,[7]; [46],0.105 µM
same,EC50,[7]; [47],0.125 µM
same,EC50,[7]; [48],0.08 µM
same,EC50,[7]; [49],0.066 µM
same,pEC50,CLK2,7.95
